For 13 molecules, TGI results are on record in PubChem BioAssay (NCI).

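How tested: cells in 96-well plates exposed to compound for 48 hours at five concentrations. Definition used: TGI = concentration required for complete inhibition of growth.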

Among the test systems are DMS 114 small cell lung; XF 498 CNS; HOP-18 NSCLC; KM20L2 colon; DLD-1 colon; DMS 273 small cell lung; M19-MEL melanoma; SNB-78 CNS; RXF-631 renal.
Assay in all cases: NCI anticancer screen, dose series, 48 h

Consider `c1ccc2c3c([nH]c2c1)C1(CCCCC1)c1c([nH]c2ccccc12)C31CCCCC1`, for which the TGI is more than 100 µM in the experiment with DMS 114 small cell lung; more than 100 µM in the experiment on XF 498 CNS; 68.2 µM in the experiment on HOP-18 NSCLC; more than 100 µM with KM20L2 colon; more than 100 µM with DLD-1 colon; 59 µM with DMS 273 small cell lung. The TGI was more than 100 µM in the experiment on M19-MEL melanoma and 45.4 µM with SNB-78 CNS.

Take `N#CN1CCC=C(c2cc3ccccc3[nH]2)C1`: the TGI with HOP-18 NSCLC, with KM20L2 colon, with RXF-631 renal, in the experiment with DLD-1 colon, in the experiment with DMS 273 small cell lung and in the experiment with M19-MEL melanoma was more than 448 µM each time.

Turning to `N#CC(NNC(=O)c1ccccc1O)c1ccccc1` (centres undefined), the TGI with DMS 114 small cell lung is 4.87 µM; in the experiment with HOP-18 NSCLC, more than 100 µM; with KM20L2 colon, more than 100 µM; in the experiment with DLD-1 colon, more than 100 µM; in the experiment on DMS 273 small cell lung, more than 100 µM; in the experiment with M19-MEL melanoma, more than 100 µM. This molecule showed a TGI with SNB-78 CNS of more than 100 µM.

As to `O=C1c2c(nc3ccccc3c2-c2ccccc2)CN1Nc1ccccc1`, the TGI in the experiment with DMS 114 small cell lung, in the experiment with XF 498 CNS, in the experiment with KM20L2 colon, in the experiment with DLD-1 colon and in the experiment with M19-MEL melanoma was more than 100 µM each time.

With `CC1=NN(C(=O)c2ccc(Cl)cc2)C(=O)/C1=C/c1ccc(O)cc1`, the TGI in the experiment with DMS 114 small cell lung, in the experiment with XF 498 CNS, with KM20L2 colon, in the experiment on DLD-1 colon and with M19-MEL melanoma was more than 100 µM in each case.

For `C/C(=N\O)C(CN1CCCCC1)C(c1ccccc1)c1c(O)c2ccccc2oc1=O` (centres undefined), the TGI with DMS 114 small cell lung, in the experiment with XF 498 CNS, with KM20L2 colon, with DLD-1 colon and in the experiment with M19-MEL melanoma was more than 100 µM in each case.

Consider `Cc1ccc(S(=O)(=O)c2c3[nH]c4ccccc4nc3n3c2nc2ccccc23)cc1`, for which the TGI in the experiment on DMS 114 small cell lung, with XF 498 CNS, with KM20L2 colon, in the experiment with DLD-1 colon, in the experiment on DMS 273 small cell lung and in the experiment with M19-MEL melanoma was more than 100 µM in each case. The molecule also had a TGI in the experiment with SNB-78 CNS of more than 100 µM.

As to `C/C(=N\NC(=S)NNC(=S)N(C)c1ccccc1)c1ccccn1`, the TGI in the experiment on DMS 114 small cell lung is 12.6 µM; in the experiment on XF 498 CNS, more than 100 µM; in the experiment on HOP-18 NSCLC it was 0.732 µM; in the experiment on DLD-1 colon it was more than 100 µM; in the experiment on DMS 273 small cell lung, more than 100 µM; in the experiment on M19-MEL melanoma, 7.59 µM. The same molecule registered a TGI with SNB-78 CNS of more than 100 µM.

As to `CCN(CC)c1cccc2c1C1(O)CCC3(CC21)OCCCCO3` (centres undefined), the TGI in the experiment on DMS 114 small cell lung, with HOP-18 NSCLC, in the experiment on KM20L2 colon, in the experiment with DLD-1 colon, in the experiment on DMS 273 small cell lung and with M19-MEL melanoma was more than 100 µM each time. This molecule gave a TGI with SNB-78 CNS of more than 100 µM.

In the case of `FC(F)(F)C1(C(F)(F)F)O[SiH]2(OC(C(F)(F)F)(C(F)(F)F)c3ccccc32)c2ccccc21`, the TGI was found to be 29.1 µM in the experiment with DMS 114 small cell lung; 75.1 µM with HOP-18 NSCLC; 18.4 µM in the experiment on KM20L2 colon; 53.2 µM in the experiment with DMS 273 small cell lung; 39.4 µM with M19-MEL melanoma; 52.8 µM in the experiment on SNB-78 CNS.

Regarding `COC1=CC(=O)[C@]2(C)[C@H](C1=O)C(C)[C@H]2c1ccccc1` (some centres undefined), the TGI with XF 498 CNS, in the experiment with RXF-631 renal, in the experiment with DLD-1 colon, with DMS 273 small cell lung, with M19-MEL melanoma and in the experiment on SNB-78 CNS was more than 100 µM each time.

Consider `C=CCCCCCC(O)C(O)C/C=C\C/C=C\CC` (centres undefined), for which the TGI in the experiment with DMS 114 small cell lung, with XF 498 CNS, with HOP-18 NSCLC, with KM20L2 colon, with DLD-1 colon and in the experiment on DMS 273 small cell lung was more than 18.8 µM each time. The molecule also returned a TGI in the experiment on SNB-78 CNS of more than 18.8 µM.

As for `COc1ccc(CCc2ccccc2CC(=O)O)cc1`, the TGI with DMS 114 small cell lung, in the experiment on XF 498 CNS, with HOP-18 NSCLC, with KM20L2 colon, in the experiment on DLD-1 colon and with DMS 273 small cell lung was more than 100 µM throughout. The TGI with M19-MEL melanoma and in the experiment with SNB-78 CNS was more than 100 µM throughout.
